Entries after “also recorded” stand apart in the source; their conditions may differ.
Legend:
[1] = system: organ of Corti of the cochlea of rats; assay: Real-time RT-PCR of organ cultures of the organ of Corti (Example 14); assay type: cell-based; conditions: 90 μM, 48 hours, rat organ of Corti culture, vs solvent (100%)
Procedure: Initially, organ cultures of the organ of Corti of the cochlea of rats were prepared, which were brought into contact with 9-methyl-β-carboline in a next step. Expression of different neurotrophins was measured as a marker of the effects of 9-methyl-β-carboline on the organs or Corti. For this, RNA was isolated from Corti's tissue, transcribed into cDNA, and the concentrations of the cDNAs of the neurotrophins were determined with help of the real-time RT-PCR method.
Organs of Corti of the cochlea of 40 rats were prepared in several sessions on day 4 post partum. […] Amount and quality of the RNA were determined photometrical. […] Real-time reverse transcriptase polymerase chain reaction (real-time RT-PCR) was performed with the LightCycler System of Roche Applied Science, Mannheim, using the fluorescence resonance energy transfer (FRET) method. […] The gen for hydroxymethylbilane synthase (HMBS) was selected as a so-called housekeeping gene for relative quantification. […] The measured fluorescence of each cycle was analysed by the LightCycler Software. […] Quantification was conducted by the 2^−ΔΔC(t) method of Livak and Schmittgen (Livak K J and Schmittgen T D. Analysis of relative gene expression data using real-time quantitative PCR and the 2(-Delta Delta C(T)) Methods 2001; 25:402-8).

[2] = system: human SH-SY5Y neuroblastoma cells; assay: Differentiation model / neurite length in human neuroblastoma cells; assay type: cell-based; conditions: 14 days; for neurite length: vs control group, P<0.001; for differentiation / neurite length in comparison to 9-methyl-β-carboline: key: +: marginally better than 9-methyl-β-carboline; ±: equal to 9-methyl-β-carboline; −: marginally worse than 9-methyl-β-carboline
Text: Human neuroblastoma cells were utilised for this model. These are permanent cells, which are present as an indifferent type in culture. They can be activated to differentiate, i.e. transformation into neuronal cells, by addition of specific substances such as retinoic acid, […] (BDNF) or activator of the enzyme, protein kinase C to the culture medium. We used this cell system to analyse whether beta-carbolines can transform the indifferent cells into the neuronal type. Criteria were: less proliferation (less cells per field of view); smaller cell bodies (transformation from the indifferent type to the neuronal type); cytodendrites (neuritis), which provide connections to neighbouring cells or clusters of neighbouring cells.
Human SH-SY5Y neuroblastoma cells were incubated in culture for 14 days with solvent (Ko) or test substance. A shift of the graph to the right side for a test substance, pointed to an increase of neurite length, when compared to the graph for the control substance. Statistical differences between the treated groups were calculated with the Tukey's Multiple Comparison-Test.
Shown are the cumulative frequency distributions of neurite lengths, determined in at least 20 randomly selected visual fields (each 640.000 μm^2) in three independent experiments. A steep rise pointed to a predominance of short neuritis, wherein for example in control cells, a less steep rise signified a greater number of longer neurites. The horizontal maximum indicated the maximal neurite length of the respective treatment group. […] The effects are dose- and substance-dependent: 1-methyl-β-carboline <6-methoxy-9-methyl-β-carboline <9-methyl-β-carboline <9-fluorethyl-β-carboline).
The effects of the other inventive β-carbolines (compounds A-L and VI-XX) on neurite length were determined, as described above, in human SH-SY5Y neuroblastoma cells after 14 days.

[3] = system: BDNF (brain-derived neurotrophic factor) in human SH-SY5Y cells; assay: Relative gene expression of BDNF (FIG. 4A); assay type: cell-based; conditions: after two days
Procedure: (§1) Next, it was investigated, whether the substances could induce the formation of nerve growth factors in human SH-SY5Y neuroblastoma cell. After 2 and 14 days the cells were harvested and the expression of the target gene and the house keeping gene was determined via reverse transcriptase-PCR.

[4] = system: NPY (Neuropeptide Y) in human SH-SY5Y cells; assay: Relative gene expression of NPY (FIG. 4E); assay type: cell-based; conditions: after 14 days of exposure
Procedure: as §1

[5] = system: transcription factor CREB in SH-SY5Y cells; assay: Dual luciferase method for intracellular cascades (FIG. 5); assay type: cell-based, human; conditions: dose-dependent activating effect, 48 h incubation, three independent experiments
Text: The effects of β-carbolines on several intracellular cascades were investigated. Of them it is known, that at their respective ends, several transcription factors are formed in the cell nucleus, that in turn activate the transcription of a group of further genes. The dual luciferase method was used. One luciferase served as transfection control, whereas the second is coupled to the appropriate specific binding sequence of the DNA.

[6] = set-up: species or system guinea pigs; conditions: guinea pig, in vivo
Procedure: Thus, infusion took place into the middle ear and, therefore, outside the cochlea of the inner ear, whereby the tympanic membrane was not damaged. After three hours, 5 μL of perilymph were obtained from the apex, the tip of the cochlea, i.e. the part of the cochlea distanced most from the membrane of the round window, by a previously implanted cannula. The sample was diluted and was separated immediately by high-pressure liquid chromatography (HPLC) without further processing; and the natural fluorescence of β-carboline was determined by a fluorescence detector. The experiment was repeated with a second guinea pig and identical conditions but the sample was obtained after a 10-hour infusion. […] In a second series, 20 μg of 9-Me-BC were applied into the perilymph straight through the membrane of the round window, i.e. intra-cochlear. After three hours and after 20 hours in case of another animal, perilymph was obtained and analysed as described above. Results are depicted in FIG. 6 together with a calibration series. […] A single maximum, which represents 9-Me-BC, can be seen after 7 minutes in the upper chromatogram of FIG. 6. Clearly, no further maximum is to be seen; thus, 9-Me-BC is not degraded.

[7] = system: cerebellin-1 precursor protein (CBLN) in human SH-SY5Y cells; assay: Relative gene expression of CBLN (FIG. 4B); assay type: cell-based
Procedure: as §1

inner ear of guinea pigs = assay: Prophylaxis of hearing damages in an animal model, gentamicin and etacrynic acid (Example 30); assay type: in vivo; conditions: infusion to the round window recess, gentamicin and etacrynic acid i.v.
Procedure: A solution containing β-carboline was infused continuously into the recess in front of the membrane of the round window of guinea pigs by a osmotic mini-pump for three days. The following β-carbolines were tested individually in this experiment: 9-methyl-β-carboline, compounds XI, XII, XVIII, XIX as well as C to L.
Then, a standard dose of gentamicin and etacrynic acid was injected intravenously into guinea pigs. Gentamicin and etacrynic acid damage the inner ear. Typically, they are used as toxins to induce deafness in such studies. The infusion was continued for further two days. Then, the electrophysiological activity of the nerve cells of the brain stem, which transmit the impulses of the inner ear, was deduced after acoustic irradiation of the ear with […]. The non-β-carboline-treated ear served as intraindividual control (Prieskorn D M, Miller J M. Technical report: chronic and acute intracochlear infusion in rodents. Hear Res, 2000; 140(1-2): 212-215). Moreover, animals were infused with 9-Me-BC only but not with gentamicin as a further control.
The measured electrophysiological activity of the nerve cells of the acoustic nerve (hearing threshold) served as a measure of the degree of therapeutic effect of the used β-carbolines on the inner ear. As can be learned from Table 3, the used β-carbolines show the increase in electrophysiological activity of the nerve cells of the acoustic nerve. It can be concluded from this that β-carbolines are useful for the treatment of hearing damages, vertigo, and vestibular disorders.

| Structure (SMILES) | generation of neurotrophins Armetl 1, BDNF, Cbln 1, NGF and NPY (transcription) [1] | dopaminergic proteins (dopamine receptor subtype 1, tyrosine hydroxylase) transcription ([1]; listed as 9-Me-BC) | neurite length ([2]; 70, 90 or 110 μM) | concentration(s) that stimulated BDNF transcription [3] [µM] | NPY gene expression, concentration dependence [4] | formation of the transcription factor CREB relative to the level in control cells [5] | degradation in perilymph (further chromatographic maxima) [6] | penetration of the membrane of the round window into the perilymph [6] | neurite length ([2]; 30, 50 or 70 μM) | differentiation / neurite length in comparison to 9-methyl-β-carboline ([2]; SH-SY5Y cells) | CBLN gene expression ([7]; after 14 days of exposure) | CBLN gene expression ([7]; after two days exposure) | effect on the inner ear (electrophysiological activity, hearing threshold) in comparison to 9-methyl-β-carboline (inner ear of guinea pigs) |
| --- | --- | --- | --- | --- | --- | --- | --- | --- | --- | --- | --- | --- | --- |
| Cn1c2ccccc2c2ccncc21 [9-methyl-β-carboline] | activated | activates specifically characteristic proteins of dopaminergic nerve cells; also recorded: increasingly activated | increase in neurite length | 110 | lower concentrations were more effective than the higher concentrations | up to ten times | not degraded | penetrates the membrane of the round window | – | – | – | – | – |
| FCCn1c2ccccc2c2ccncc21 [fluorethyl-BC (XIX), 9-(2-fluoroethyl)-9H-β-carboline] | – | – | – | – | lower concentrations were more effective than the higher concentrations | up to ten times | – | – | increase in neurite length | + | roughly the same stimulation at all investigated concentrations | increased | + |
